Assay results published in patent publication US12692238B2, “Substituted pyridazinone herbicides” (FMC CORPORATION, priority 2020, dated 2026).

Tests used:
Format in all cases: in vivo
[1] = test system: galium (catchweed bedstraw, Galium aparine); test: Test A postemergence, galium; conditions: 10 days
Source text: (§1) Seeds of plant species selected from barnyardgrass (Echinochloa crus-galli), blackgrass (Alopecurus myosuroides), corn (Zea mays), foxtail, giant (giant foxtail, Setaria faberi), foxtail, green (green foxtail, Setaria viridis), goosegrass (Eleusine indica), kochia (Bassia scoparia), oat, wild (wild oat, Avena fatua), palmer amaranth (pigweed, palmer, Amaranthus palmeri), redroot pigweed (Amaranthus retroflexus), ragweed (common ragweed, Ambrosia artemisiifolia), ryegrass, Italian (Italian ryegrass, Lolium multiflorum), and soybean (Glycine max) were planted into a blend of loam soil and sand and treated preemergence with a directed soil spray using test chemicals formulated in a non-phytotoxic solvent mixture which included a surfactant.
(§2) At the same time, plants selected from these crop and weed species and also wheat (Triticum aestivum), galium (catchweed bedstraw, Galium aparine) and horseweed (Erigeron canadensis) were planted in pots containing the same blend of loam soil and sand and treated with postemergence applications of test chemicals formulated in the same manner. Plants ranged in height from 2 to 10 cm and were in the one- to two-leaf stage for the postemergence treatment. Treated plants and untreated controls were maintained in a greenhouse for 10 days, after which time all treated plants were compared to untreated controls and visually evaluated for injury. Plant response ratings, summarized in Table A, are based on a 0 to 100 scale where 0 is no effect and 100 is complete control. A dash (-) response means no test result.

[2] = test system: ragweed (common ragweed, Ambrosia artemisiifolia); test: Test A preemergence, ragweed; conditions: 0 to 100 scale, 10 days
Source text: as §1, §2

rice (Oryza sativa) = test: Test B flooded paddy test, rice; conditions: 250 g ai/ha, Flood; visually evaluated after 10 to 14 days
Procedure: (§3) Plant species in the flooded paddy test selected from barnyardgrass (Echinochloa crus-galli), ducksalad (Heteranthera limosa), rice (Oryza sativa), and sedge, umbrella (small-flower umbrella sedge, Cyperus difformis) were grown to the 2-leaf stage for testing. At time of treatment, test pots were flooded to 3 cm above the soil surface, treated by application of test compounds directly to the paddy water, and then maintained at that water depth for the duration of the test. Treated plants and controls were maintained in a greenhouse for 10 to 14 days, after which time all species were compared to controls and visually evaluated. Plant response ratings, summarized in Table B, are based on a scale of 0 to 100 where 0 is no effect and 100 is complete control. A dash (-) response means no test result.

[3] = test system: wheat (Triticum aestivum); test: Test A postemergence, wheat; conditions: 10 days
Source text: as §1, §2

[4] = test system: barnyardgrass (Echinochloa crus-galli); test: Test A preemergence, barnyardgrass; conditions: 10 days
Source text: as §1, §2

[5] = test system: barnyardgrass (Echinochloa crus-galli); test: Test A postemergence, barnyardgrass; conditions: 10 days
Source text: as §1, §2

kochia (Bassia scoparia) [6] = test: Test A postemergence, kochia; conditions: 10 days
Source text: as §1, §2

[7] = test system: ragweed (common ragweed, Ambrosia artemisiifolia); test: Test A postemergence, ragweed; conditions: 10 days
Source text: as §1, §2

[8] = test system: foxtail, giant (giant foxtail, Setaria faberi); test: Test A preemergence, foxtail, giant; conditions: 0 to 100 scale, 10 days
Source text: as §1, §2

[9] = test system: blackgrass (Alopecurus myosuroides); test: Test A postemergence, blackgrass; conditions: 10 days
Source text: as §1, §2

[10] = test system: ryegrass, Italian (Italian ryegrass, Lolium multiflorum); test: Test A postemergence, ryegrass, Italian; conditions: 10 days
Source text: as §1, §2

[11] = test system: ryegrass, Italian (Italian ryegrass, Lolium multiflorum); test: Test A preemergence, ryegrass, Italian; conditions: 0 to 100 scale, 10 days
Source text: as §1, §2

[12] = test system: foxtail, giant (giant foxtail, Setaria faberi); test: Test A postemergence, foxtail, giant; conditions: 10 days
Source text: as §1, §2

[13] = test system: barnyardgrass (Echinochloa crus-galli); test: Test B flooded paddy test, barnyardgrass; conditions: 250 g ai/ha, Flood; visually evaluated after 10 to 14 days
Procedure: as §3

kochia (Bassia scoparia) [14] = test: Test A preemergence, kochia; conditions: 0 to 100 scale, 10 days
Source text: as §1, §2

[15] = test system: redroot pigweed (Amaranthus retroflexus); test: Test A preemergence, redroot pigweed; conditions: 0 to 100 scale, 10 days
Source text: as §1, §2

[16] = test system: redroot pigweed (Amaranthus retroflexus); test: Test A postemergence, redroot pigweed; conditions: 10 days
Source text: as §1, §2

corn (Zea mays) = test: Test A postemergence, corn; conditions: 10 days
Source text: as §1, §2

[17] = test system: sedge, umbrella (small-flower umbrella sedge, Cyperus difformis); test: Test B flooded paddy test, sedge, umbrella; conditions: 250 g ai/ha, Flood; visually evaluated after 10 to 14 days
Procedure: as §3

[18] = test system: ducksalad (Heteranthera limosa); test: Test B flooded paddy test, ducksalad; conditions: 250 g ai/ha, Flood; visually evaluated after 10 to 14 days
Procedure: as §3

[19] = 31 g ai/ha, postemergence, 0 to 100 scale (0 no effect, 100 complete control)
[20] = Postemergence, 125 g ai/ha, 0 to 100 scale
[21] = 125 g ai/ha, 0 to 100 scale (0 no effect, 100 complete control)

Compound | Plant response rating, Galium [1, 19] | Plant response rating, Galium [1, 20] | Plant response rating, Ragweed ([2]; 31 g ai/ha) | Plant response rating, Ragweed ([2]; 125 g ai/ha) | Plant response rating, Rice (0 to 100 scale where 0 is no effect and 100 is complete control) (rice (Oryza sativa)) | Plant response rating, Wheat [3, 19] | Plant response rating, Wheat [3, 20] | Plant response rating, Barnyardgrass ([4]; 31 g ai/ha, 0 to 100 scale) | Plant response rating, Barnyardgrass [4, 21] | Plant response rating, Barnyardgrass [5, 19] | Plant response rating, Barnyardgrass [5, 20] | Plant response rating, Kochia (kochia (Bassia scoparia) [6]; [19]) | Plant response rating, Kochia (kochia (Bassia scoparia) [6]; [20]) | Plant response rating, Ragweed [7, 19] | Plant response rating, Ragweed [7, 20] | Plant response rating, Foxtail, Giant ([8]; 31 g ai/ha) | Plant response rating, Foxtail, Giant ([8]; 125 g ai/ha) | Plant response rating, Blackgrass [9, 19] | Plant response rating, Blackgrass [9, 20] | Plant response rating, Ryegrass, Italian [10, 19] | further results
CC(=O)OCOc1c(Cl)nn(C)c(=O)c1-c1c2cc(C)ccc2cc2ccc(C)cc12 [Compound 23] | 70 | 100 | 40 | 90 | 0 | 0 | 0 | 30 | 80 | 30 | 90 | 20 | 80 | 70 | 100 | 0 | 20 | 40 | 20 | 0 | Plant response rating, Ryegrass, Italian [10, 20]: 40; Plant response rating, Ryegrass, Italian ([11]; 31 g ai/ha): 0; Plant response rating, Ryegrass, Italian ([11]; 125 g ai/ha): 0; Plant response rating, Foxtail, Giant [12, 19]: 0; Plant response rating, Foxtail, Giant [12, 20]: 50; Plant response rating, Barnyardgrass (0 to 100 scale where 0 is no effect and 100 is complete control) [13]: 60; Plant response rating, Kochia (kochia (Bassia scoparia) [14]; 31 g ai/ha): 60; Plant response rating, Kochia (kochia (Bassia scoparia) [14]; 125 g ai/ha): 90; Plant response rating, Pigweed, Redroot ([15]; 31 g ai/ha): 100; Plant response rating, Pigweed, Redroot ([15]; 125 g ai/ha): 100; Plant response rating, Pigweed, Redroot [16, 19]: 100; Plant response rating, Pigweed, Redroot [16, 20]: 100; Plant response rating, Corn (corn (Zea mays); [19]): 0; Plant response rating, Corn (corn (Zea mays); [20]): 40; Plant response rating, Sedge, Umbrella (0 to 100 scale where 0 is no effect and 100 is complete control) [17]: 75; Plant response rating, Ducksalad (0 to 100 scale where 0 is no effect and 100 is complete control) [18]: 95
COc1cc(OC)c2cc3ccc(F)cc3c(-c3c(OCOC(C)=O)c(C)nn(C)c3=O)c2c1 [Compound 25] | 50 | 60 | 0 | 0 | 0 | 0 | 0 | 0 | 0 | 0 | 10 | 0 | 10 | 0 | 0 | 0 | 0 | 0 | 10 | 0 | Plant response rating, Ryegrass, Italian [10, 20]: 0; Plant response rating, Ryegrass, Italian ([11]; 31 g ai/ha): 0; Plant response rating, Ryegrass, Italian ([11]; 125 g ai/ha): 0; Plant response rating, Foxtail, Giant [12, 19]: 0; Plant response rating, Foxtail, Giant [12, 20]: 20; Plant response rating, Barnyardgrass (0 to 100 scale where 0 is no effect and 100 is complete control) [13]: 0; Plant response rating, Kochia (kochia (Bassia scoparia) [14]; 31 g ai/ha): 0; Plant response rating, Kochia (kochia (Bassia scoparia) [14]; 125 g ai/ha): 0; Plant response rating, Pigweed, Redroot ([15]; 31 g ai/ha): 0; Plant response rating, Pigweed, Redroot ([15]; 125 g ai/ha): 30; Plant response rating, Pigweed, Redroot [16, 19]: 80; Plant response rating, Pigweed, Redroot [16, 20]: 90; Plant response rating, Corn (corn (Zea mays); [19]): 0; Plant response rating, Corn (corn (Zea mays); [20]): 20; Plant response rating, Sedge, Umbrella (0 to 100 scale where 0 is no effect and 100 is complete control) [17]: 0; Plant response rating, Ducksalad (0 to 100 scale where 0 is no effect and 100 is complete control) [18]: 0
COc1ccc2cc3ccc(F)cc3c(-c3c(OCOC(C)=O)c(C)nn(C)c3=O)c2c1 [Compound 26] | 80 | 100 | 30 | 30 | 10 | 20 | 60 | 10 | 70 | 20 | 40 | 40 | 80 | 90 | 100 | 20 | 90 | 0 | 10 | 20 | Plant response rating, Ryegrass, Italian [10, 20]: 90; Plant response rating, Ryegrass, Italian ([11]; 31 g ai/ha): 10; Plant response rating, Ryegrass, Italian ([11]; 125 g ai/ha): 90; Plant response rating, Foxtail, Giant [12, 19]: 20; Plant response rating, Foxtail, Giant [12, 20]: 70; Plant response rating, Barnyardgrass (0 to 100 scale where 0 is no effect and 100 is complete control) [13]: 60; Plant response rating, Kochia (kochia (Bassia scoparia) [14]; 31 g ai/ha): 20; Plant response rating, Kochia (kochia (Bassia scoparia) [14]; 125 g ai/ha): 90; Plant response rating, Pigweed, Redroot ([15]; 31 g ai/ha): 100; Plant response rating, Pigweed, Redroot ([15]; 125 g ai/ha): 100; Plant response rating, Pigweed, Redroot [16, 19]: 100; Plant response rating, Pigweed, Redroot [16, 20]: 100; Plant response rating, Corn (corn (Zea mays); [19]): 0; Plant response rating, Corn (corn (Zea mays); [20]): 10; Plant response rating, Sedge, Umbrella (0 to 100 scale where 0 is no effect and 100 is complete control) [17]: 85; Plant response rating, Ducksalad (0 to 100 scale where 0 is no effect and 100 is complete control) [18]: 80
